{
  "source": "patent US20230065562A1",
  "about": "“DUAL CONTROLS FOR THERAPEUTIC CELL ACTIVATION OR ELIMINATION” (Bellicum Pharmaceuticals, Inc., priority 2015, published 2023)",
  "key": {"[1]": {"tested_on": "iC9 T cells (pBP0220, GFP-Fluc)", "test": "In vivo apoptotic activation in NSG mice, iC9 T cells (IVIS imaging, spleen FACS)", "design": "species or system mouse", "experimental": "PBMCs from donor 676 were activated and co-transduced with one of the off-switches and GFP-Fluc retroviruses. Eleven days after transduction, cells were analyzed for transduction efficiency with GFP and anti-CD3/anti-CD19 antibodies (FIG. 109A). […] The CD19^+ MFI for the different T cell populations were: iC9=15.07, iRC9=14.38, and iRmC9=13.39. The cells were collected, counted, washed, and resuspended at 1×10^6 cells in 100 μl PBS for each tail vein mouse injection (Table 10) (time=−18 hr). […] IVIS imaging was performed at −14, 0, 5, 24 and 29 hours. Mice were sacrificed and spleens were collected for FACS analysis with hCD3, hCD19 and mCD45 antibodies. […] The higher percentage of remaining iRmC9 T cells observed may be due to an artifact of normalizing the no drug group.\nPBMCs from donor 676 were activated and co-transduced with retroviruses encoding the pBP0220, 1310, 1327 vectors and the GFP-Fluc plasmid. (FIG. 109A) Eleven days post transduction, the cells were analyzed for CD19 and GFP transduction efficiency prior to injection into mice. (FIGS. 109B & C) NSG mice were injected i.v. with 107 T cells co-transduced with GFP-Fluc per mouse and suicide drugs were injected i.p. the next day. Bioluminescence of cells was assessed at −14, 0, 5, 24, and 29 hours post-drug administration. […]"}, "[2]": {"tested_on": "HLA-A2+PRAME+ U2OS osteosarcoma", "test": "iMC-PRAME TCR cytotoxicity and IL-2 secretion against U2OS", "assay_type": "cell-based", "description": "The Go156 TCR is a negative control TCR."}, "[3]": {"tested_on": "iCasp9M.IRES.GFPhigh-transduced CTLs in LCL xenograft", "test": "SCID mouse-human xenograft model, elimination of iCasp9M-transduced CTLs", "assay_type": "in vivo, NOD/SCID mice", "settings": "single dose of CID (50 μg AP20187 i.p.), 3 days after", "experimental": "Non-obese diabetic severe combined immunodeficient (NOD/SCID) mice, 6 to 8 weeks of age, were irradiated (250 rad) and injected subcutaneously in the right flank with 10×10^6 to 15×10^6 LCLs resuspended in Matrigel (BD Bioscience). Two weeks later mice bearing tumors that were approximately 0.5 cm in diameter were injected into the tail vein with a 1:1 mixture of nontransduced and iCasp9.I.GFPhigh-transduced EBV CTLs (total 15×10^6). At 4 to 6 hours prior and 3 days after CTL infusion, mice were injected intraperitoneally with recombinant hIL-2 (2000 U; Proleukin; Chiron). […] By FACS analysis, the number of GFP^+ cells within the gated CD3^+ population was evaluated. […]\nThe function of iCasp9M also was evaluated in transduced EBV-CTLs in vivo. […] Three days after CID/carrier administration, tumors were analyzed for human CD3^+/GFP^+ cells. […]\nThe function of iCasp9M in vivo, was assayed. […] On day 3 after CTL administration, mice received either CID (50 µg AP20187; (black diamonds, n=6) or carrier only (black squares, n=5) and on day 6 the presence of human CD3^+/GFP^+ T cells in the tumors was analyzed. Human CD3^+ T cells isolated from the tumors of a control group of mice that received only nontransduced CTLs (15×10^6 CTLs; n=4) were used as a negative control for the analysis of CD3^+/GFP^+ T cells within the tumors."}},
  "data": [
    {"compound": "CC[C@H](C(=O)N1CCCC[C@H]1C(=O)O[C@H](CCc1ccc(OC)c(OC)c1)c1cccc(OCC(=O)NCCNC(=O)COc2cccc([C@@H](CCc3ccc(OC)c(OC)c3)OC(=O)[C@@H]3CCCCN3C(=O)[C@@H](CC)c3cc(OC)c(OC)c(OC)c3)c2)c1)c1cc(OC)c(OC)c(OC)c1", "note": "[rimiducid]", "values": [
      {"measurement": "iC9 T cells remained in splenocytes compared to no drug- or rapamycin-treated groups", "setting": "[1]; 5 mg/kg rimiducid i.p., spleen FACS, FIG. 109D", "value": "~20", "unit": "%"},
      {"measurement": "removal of iC9 T cells / bioluminescence signal (IVIS imaging)", "setting": "[1]; NSG mice, 5 mg/kg rimiducid or 10 mg/kg rapamycin i.p., FIGS. 109B & C", "value": "induced significant removal"},
      {"measurement": "iMC-PRAME TCR-mediated cytotoxicity against U2OS", "setting": "[2]; FIG. 119A", "value": "rimiducid-independent"},
      {"measurement": "IL-2 secretion, PRAME TCR with rimiducid-driven iMC costimulation, U2OS", "setting": "[2]; FIG. 119B", "value": "maximal IL-2 secretion"}
    ]},
    {"compound": "CC[C@H](C(=O)N1CCCC[C@H]1C(=O)O[C@H](CCc1ccc(OC)c(OC)c1)c1cccc(OCC(=O)NCC(CNC(=O)COc2cccc([C@@H](CCc3ccc(OC)c(OC)c3)OC(=O)[C@@H]3CCCCN3C(=O)[C@@H](CC)c3cc(OC)c(OC)c(OC)c3)c2)CN(C)C)c1)c1cc(OC)c(OC)c(OC)c1", "note": "[AP20187]", "values": [
      {"measurement": "reduction in the number of human CD3+/GFP+ T cells versus carrier", "setting": "[3]; listed as CID", "value": "> 99", "unit": "%"},
      {"measurement": "reduction in the number of human CD3+/GFP+ T cells versus carrier", "setting": "[3]; listed as dimerizer", "value": "more than 99%"}
    ]}
  ]
}
